Square brackets hold non-standard residues; d marks the D form. Peptide text beside a SMILES is read from it. Ac6c = NC1(C(=O)O)CCCCC1
How the values were obtained:
E. coli BW25113 = assay: MIC, liquid broth micro dilution, wild type; type: cell-based, Escherichia coli
Experimental: (§1) MIC values were determined using a liquid broth micro dilution assay in sterile 96-well plates (polystyrene F-bottom, Greiner Bio-One GmbH) and a total volume of 100 μL per well. Aqueous peptide solutions (10 g/L) were serially twofold diluted in 25% Mueller-Hinton broth 2 (25% MBH2) or 33% tryptic soy broth (33% TSB) starting at a peptide concentration of 128 mg/L (50 μL/well). Overnight cultures of bacteria grown in 25% MHB2 (or 33% TSB) were diluted 30-fold in 25% MHB2 (or 33% TSB). After an incubation period of 4 h (37 °C, 200 rpm), cells were diluted to 1.5 × 10^7 cfu/mL, based on a McFarland test, and 50 μL were added to each well (final concentration of 7.5 × 10^6 […]). The plates were incubated (37 °C, 20 h) and the optical density was recorded at 595 nm using a microplate reader ([…]^TM, Beckmann Coulter). The MIC was defined as the lowest peptide concentration preventing visible bacterial growth.

[1] = system: E. coli BW25113 ∆sbmA ∆mdtM; type: cell-based, Escherichia coli; settings: for Minimal Inhibitory Concentration, 25% MHB2, ∆sbmA ∆mdtM: 25% MHB2, 37 °C; for Minimal Inhibitory Concentration, 25% MHB2, ∆sbmA ∆mdtM / Minimal Inhibitory Concentration, 33% TSB, ∆sbmA ∆mdtM: 20 h, at least duplicates on two days, * once on two days, ** duplicate on one day; for Minimal Inhibitory Concentration, 33% TSB, ∆sbmA ∆mdtM: 37 °C; for Effect of the additional mdtM knockout on antibacterial activity: ∆sbmA ∆mdtM compared with ∆sbmA
Experimental: as §1

E. coli BW25113 ∆sbmA = type: cell-based, Escherichia coli; settings: for Minimal Inhibitory Concentration, 25% MHB2, ∆sbmA: 25% MHB2, 37 °C; for Minimal Inhibitory Concentration, 25% MHB2, ∆sbmA / Minimal Inhibitory Concentration, 33% TSB, ∆sbmA: 20 h, at least duplicates on two days, * once on two days, ** duplicate on one day; for Minimal Inhibitory Concentration, 33% TSB, ∆sbmA: 37 °C
Experimental: as §1

E. coli 70S ribosome [2] = assay: Competitive FP binding screening assay with Cf-ARV-1502 (relative FP); set-up: species or system E. coli BW25113; settings: for Inhibition of Cf-ARV-1502 binding to the 70S ribosome (in words): Figure 3: peptide concentration 1.2 µmol/L
Experimental: E. coli 70S ribosomes were prepared using a previously described protocol that was slightly modified. Briefly, E. coli BW25113 was cultivated in Luria-Bertani (LB) medium and cells were harvested after reaching an optical density of ~4 at 600 nm by centrifugation (5000× g, 15 min, 4 °C, Rotor JLA 8.100, Avanti J-20 XP, Beckmann Coulter, Krefeld, Germany). The cell pellets were frozen and stored at −80 °C. Cells were resuspended in ribosome buffer (2 mL/g cells; 20 mmol/L HEPES-KOH, 6 mmol/L MgCl2, 30 mmol/L NH4Cl, 4 mmol/L 2-mercaptoethanol, pH 7.6). Lysozyme (0.25 g/L cell suspension) was added, and the mixture was incubated on ice for 30 min. Cells were disrupted using the bead mill homogenizer FastPrep-24™ 5G (40 s, 4 m/s, 6 cycles, MP Biomedicals Germany GmbH, Eschwege, Germany) and zirconia/silica beads (0.1 mm diameter). The lysate was centrifuged (1500× g, 5 min, 4 °C, Rotor S4180, Allegra 21R, Beckmann Coulter) and the supernatant was incubated with DNase (5 U/mL) on ice for 60 min. The cell debris was removed by two centrifugation steps (16,000× g, 30 min, 4 °C followed by 32,000× g, 60 min, 4 °C, Rotor JA 30.50 Ti, Avanti J-30I, Beckmann Coulter). The ribosome was pelleted by ultracentrifugation (165,000× g, 17 h, 4 °C, Rotor 70 Ti, Optima LE-80K, Beckmann Coulter), resuspended in ribosome buffer (0.1 mL/g pellet), and stored at −80 °C. The ribosome concentration was determined by recording the absorbance of RNA at 260 nm (NanoPhotometer NP80, Implen GmbH, München, Germany) assuming that 1 AU corresponds to a ribosome concentration of 28 nmol/L. The molecular weight of the E. coli 70S ribosome was assumed to be 2.3 MDa.
E. coli 70S ribosomes and Cf-ARV-1502 were incubated with four different concentrations of unlabeled peptides chosen based on the IC50 curves of reference peptide ARV-1502. Each peptide was diluted in ribosome buffer to obtain a concentration of 4.8 µmol/L and transferred to a 384-well-plate. Peptides were then twofold serially diluted in four steps from 4.8 to 0.6 µmol/L (20 µL). The ribosome extract was diluted in ribosome buffer to reach a concentration of 2 µmol/L and 10 µL were added to each well to obtain a final ribosome concentration of 0.5 µmol/L. Plates were centrifuged (2 min, 500× g, Rotor S2096, Allegra^TM 21R, Beckmann Coulter) and incubated at 28 °C for 90 min. Cf-labeled ARV-1502 was added (10 µL; final concentration of 20 nmol/L) and the plates were again centrifuged and incubated (28 °C, 90 min). After incubation, fluorescence polarization was recorded on a […]^TM microplate reader (λex = 485 nm, λem = 535 nm).
On each plate 12 minimum (30 µL ribosome buffer and 10 µL Cf-ARV-1502) and 12 maximum (20 µL ribosome buffer, 10 µL ribosome solution and 10 µL Cf-ARV-1502) control samples were added. Fluorescence polarization of screening samples was normalized to the fluorescence polarization of these control samples. All screening samples were measured in triplicates and the whole experiment was repeated once on another day.

E. coli 70S ribosome [3] = assay: Cell-free GFP expression assay (in vitro translation); type: biochemical
From the text: Possible effects of ARV-1502 and its substituted analogs on the in vitro translation of the green fluorescent protein (GFP) were probed using the NEB PureExpress Delta RF123 Kit (New England Biolabs, Ipswich, MA, USA). The sfGFP DNA template was amplified from pY71sfGFP plasmid by PCR introducing an UAA stop codon. Release factor 1 (RF1) was 50fold diluted in Pure System Buffer (PSB) containing magnesium acetate (1 mol/L), monopotassium phosphate (0.5 mol/L, pH 7.3), potassium glutamate (1 mol/L), NH4Cl (1 mol/L), calcium chloride (0.5 mol/L), spermidine (1 mol/L), putrescine (0.1 mol/L), and DTT (0.1 mol/L). Each reaction used 35 ng of sfGFP template. Peptides were added at a final concentration of 5 µmol/L and 50 µmol/L. The reaction was started by adding Kit solutions A (2 µL) and B (1.5 µL), diluted RF1 (0.5 µL), sfGFP template (0.25 µL or water as negative control), PSB (0.25 µL), and peptide (0.5 µL or water), mixed, transferred into a black 384-well plate (flat bottom, Greiner Bio-One GmbH), and incubated (37 °C, 2 h). The fluorescence was recorded every 10 min (λexc = 485 nm, λem = 535 nm) in a microplate reader (Gemini EM, Molecular Devices LLC, San Jose, CA, USA).

[4] = 33% TSB, 37 °C, 20 h, at least duplicates on two days, * once on two days, ** duplicate on one day

CC(C)C[C@H](NC(=O)[C@H](Cc1ccc(O)cc1)NC(=O)[C@@H]1CCCN1C(=O)[C@H](CCCNC(=N)N)NC(=O)[C@@H]1CCCN1C(=O)[C@H](Cc1ccccc1)NC(=O)[C@H](Cc1ccccc1)NC(=O)[C@@H]1CCCN1C(=O)[C@H](CCCNC(=N)N)NC(=O)C1(N)CCCCC1)C(=O)N[C@@H](CO)C(=O)N[C@@H](CCCNC(=N)N)C(=O)N1CCC[C@H]1C(=O)N[C@@H](CCCNC(=N)N)C(=O)N1CCC[C@H]1C(=O)N1CCC[C@H]1C(=O)N[C@@H](CCCNC(=N)N)C(=O)N1CCC[C@H]1C(=O)N[C@H](C(=O)N[C@@H](CCCNC(=N)N)C(N)=O)C(C)C [Peptide 99] (H-[Ac6c]RPFFPRPYLSRPRPPRPVR-NH2)
Minimal Inhibitory Concentration, 25% MHB2, wt (E. coli BW25113; 25% MHB2, 37 °C, 20 h, at least duplicates on two days, * once on two days, ** duplicate on one day): 16 to 32 µg/mL
Minimal Inhibitory Concentration, 33% TSB, wt (E. coli BW25113; [4]): 64 µg/mL
Minimal Inhibitory Concentration, 25% MHB2, ∆sbmA ∆mdtM [1]: 32 µg/mL
Minimal Inhibitory Concentration, 33% TSB, ∆sbmA ∆mdtM [1]: 128 µg/mL
Effect of the additional mdtM knockout on antibacterial activity [1]: no effect
Minimal Inhibitory Concentration, 25% MHB2, ∆sbmA (E. coli BW25113 ∆sbmA): 32 µg/mL
Minimal Inhibitory Concentration, 33% TSB, ∆sbmA (E. coli BW25113 ∆sbmA): 128 µg/mL
Inhibition of Cf-ARV-1502 binding to the 70S ribosome (in words) (E. coli 70S ribosome [2]): did not inhibit the binding of Cf-ARV-1502

CC(C)C[C@H](NC(=O)[C@H](Cc1ccc(O)cc1)NC(=O)[C@@H]1CCCN1C(=O)[C@H](CCCNC(=N)N)NC(=O)[C@@H]1CCCN1C(=O)[C@H](Cc1ccccc1)NC(=O)[C@H](Cc1ccccc1)NC(=O)[C@@H]1CCCN1C(=O)[C@H](CCCNC(=N)N)NC(=O)C1(N)CCCCC1)C(=O)N1CCC[C@H]1C(=O)N[C@@H](CC(C)C)C(=O)N1CCC[C@H]1C(=O)N[C@@H](CCCNC(=N)N)C(=O)N1CCC[C@H]1C(=O)N1CCC[C@H]1C(=O)N[C@@H](CCCNC(=N)N)C(=O)N1CCC[C@H]1C(=O)N[C@H](C(=O)N[C@@H](CCCNC(=N)N)C(N)=O)C(C)C [Peptide 102] (H-[Ac6c]RPFFPRPYLPLPRPPRPVR-NH2; N-terminus and C-terminus assumed)
MIC (µg/mL), Table 3 (E. coli BW25113; BW25113, 4 h): 32 to 64 µg/mL
Minimal Inhibitory Concentration, 25% MHB2, wt (E. coli BW25113; BW25113, 20 h): 32 to 64 µg/mL
Minimal Inhibitory Concentration, 33% TSB, wt (E. coli BW25113; BW25113, 20 h): 64 µg/mL
Effect of the additional mdtM knockout on antibacterial activity [1]: no effect
Effect of deletion of SbmA on antibacterial activity (E. coli BW25113 ∆sbmA; ∆sbmA compared with wild-type strain): no effect
Ribosome Binding (%) (E. coli 70S ribosome [2]; competitive ribosome binding against Cf-ARV-1502 (relative FP; values match 1.2 µmol/L peptide), low value = strong competition): 76.5 ± 5.6%
In Vitro Translation (%) (E. coli 70S ribosome [3]; GFP expression remaining relative to control, concentration not given (higher concentration 50 µmol/L)): 78.9 ± 3.5%
Reduction of GFP expression, 50 µmol/L peptide (E. coli 70S ribosome [3]; cell-free expression, peptide-to-ribosome ratio of 25, GFP fluorescence, 37 °C): ~ 25%

CC(C)[C@H](NC(=O)[C@@H]1CCCN1C(=O)[C@H](CCCNC(=N)N)NC(=O)[C@@H]1CCCN1C(=O)[C@@H]1CCCN1C(=O)[C@H](CCCNC(=N)N)NC(=O)[C@@H]1CCCN1C(=O)[C@H](CCCNC(=N)N)NC(=O)[C@@H]1CCCN1C(=O)[C@H](Cc1ccccc1)NC(=O)[C@H](CCCCN)NC(=O)[C@@H]1CCCN1C(=O)[C@H](CCCNC(=N)N)NC(=O)[C@@H]1CCCN1C(=O)[C@H](CCCCN)NC(=O)[C@H](CC(=O)O)NC(=O)[C@@H]1CCCN1C(=O)[C@H](CCCNC(=N)N)NC(=O)C1(N)CCCCC1)C(=O)N[C@@H](CCCNC(=N)N)C(N)=O [Peptide 123] (H-[Ac6c]RPDKPRPKFPRPRPPRPVR-NH2)
Minimal Inhibitory Concentration, 33% TSB, wt (E. coli BW25113; [4]): 128 µg/mL
MIC / activity against E. coli (E. coli BW25113; BW25113, 4 h): 16 to 32 µg/mL
Minimal Inhibitory Concentration, 25% MHB2, wt (E. coli BW25113; BW25113, 20 h): 32 µg/mL
Minimal Inhibitory Concentration, 25% MHB2, ∆sbmA ∆mdtM [1]: 128 µg/mL
Minimal Inhibitory Concentration, 33% TSB, ∆sbmA ∆mdtM [1]: >128 µg/mL
Effect of the additional mdtM knockout on antibacterial activity [1]: weakened the activity
Minimal Inhibitory Concentration, 25% MHB2, ∆sbmA (E. coli BW25113 ∆sbmA): 64 µg/mL
Minimal Inhibitory Concentration, 33% TSB, ∆sbmA (E. coli BW25113 ∆sbmA): >128 µg/mL
Inhibition of Cf-ARV-1502 binding to the 70S ribosome (in words) (E. coli 70S ribosome [2]): did not inhibit the binding of Cf-ARV-1502

Reference: PMC8950706, “Influence of Substitutions in the Binding Motif of Proline-Rich Antimicrobial Peptide ARV-1502 on 70S Ribosome Binding and Antimicrobial Activity” (International Journal of Molecular Sciences, 2022)
